Consider 2 molecules from ChEMBL document CHEMBL4400532, “Histone methyl transferases: A class of epigenetic opportunities to counter uncontrolled cell proliferation” (Eur J Med Chem, 2019).

For one assay, the system named is HCT-116. Nature of the assay: Cytotoxicity against human HCT116 cells after 72 hrs by CCK8 assay. In kind it is functional, cell-based. To be noted: HCT-116, 72 h.
Another assay concerns A549. Nature of the assay: Cytotoxicity against human A549 cells after 72 hrs by CCK8 assay. To be noted: A549, 72 h. It counts as functional, cell-based.
For the next assay, the system named is HFL1. Briefly: Cytotoxicity against human HFL1 cells after 72 hrs by CCK8 assay. In kind it is cell-based. To be noted: HFL1, 72 h.
For another assay, the system named is CCD-18Co. Nature of the assay: Cytotoxicity against human CCD-18Co cells after 72 hrs by CCK8 assay. It counts as cell-based.
Another assay concerns PC-14. Briefly: Cytotoxicity against human PC14 cells after 72 hrs by CCK8 assay. To be noted: PC-14, 72 h. It counts as functional, cell-based.
In assay [1] the target is Histone-lysine N-methyltransferase EZH2 (Homo sapiens, UniProt Q15910). Nature of the assay: Inhibition of EZH2 (unknown origin).
Histone-lysine N-methyltransferase EZH2, sequence (Q15910 whole entry): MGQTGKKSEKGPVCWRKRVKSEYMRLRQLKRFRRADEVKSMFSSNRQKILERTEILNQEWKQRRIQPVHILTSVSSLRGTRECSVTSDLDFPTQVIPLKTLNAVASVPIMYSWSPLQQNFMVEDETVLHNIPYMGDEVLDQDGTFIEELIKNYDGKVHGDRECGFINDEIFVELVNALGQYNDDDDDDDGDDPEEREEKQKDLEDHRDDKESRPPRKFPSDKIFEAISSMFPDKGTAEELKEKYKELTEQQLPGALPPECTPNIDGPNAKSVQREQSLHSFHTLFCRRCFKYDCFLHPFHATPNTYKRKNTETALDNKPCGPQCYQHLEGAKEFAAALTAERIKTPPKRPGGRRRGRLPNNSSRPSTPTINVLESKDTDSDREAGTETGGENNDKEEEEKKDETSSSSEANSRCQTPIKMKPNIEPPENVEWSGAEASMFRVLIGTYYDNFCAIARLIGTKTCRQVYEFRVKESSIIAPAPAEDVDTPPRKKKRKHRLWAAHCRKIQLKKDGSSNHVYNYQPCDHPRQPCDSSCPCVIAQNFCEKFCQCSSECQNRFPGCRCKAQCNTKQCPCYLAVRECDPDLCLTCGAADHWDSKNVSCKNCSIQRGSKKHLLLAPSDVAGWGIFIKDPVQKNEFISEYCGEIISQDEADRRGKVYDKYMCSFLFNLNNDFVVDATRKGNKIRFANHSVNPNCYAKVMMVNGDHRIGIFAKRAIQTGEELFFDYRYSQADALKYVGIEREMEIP
Assay [2] has as its target T1, Histone-arginine methyltransferase CARM1 (Homo sapiens, UniProt Q86X55).
T1 sequence (Q86X55 whole entry): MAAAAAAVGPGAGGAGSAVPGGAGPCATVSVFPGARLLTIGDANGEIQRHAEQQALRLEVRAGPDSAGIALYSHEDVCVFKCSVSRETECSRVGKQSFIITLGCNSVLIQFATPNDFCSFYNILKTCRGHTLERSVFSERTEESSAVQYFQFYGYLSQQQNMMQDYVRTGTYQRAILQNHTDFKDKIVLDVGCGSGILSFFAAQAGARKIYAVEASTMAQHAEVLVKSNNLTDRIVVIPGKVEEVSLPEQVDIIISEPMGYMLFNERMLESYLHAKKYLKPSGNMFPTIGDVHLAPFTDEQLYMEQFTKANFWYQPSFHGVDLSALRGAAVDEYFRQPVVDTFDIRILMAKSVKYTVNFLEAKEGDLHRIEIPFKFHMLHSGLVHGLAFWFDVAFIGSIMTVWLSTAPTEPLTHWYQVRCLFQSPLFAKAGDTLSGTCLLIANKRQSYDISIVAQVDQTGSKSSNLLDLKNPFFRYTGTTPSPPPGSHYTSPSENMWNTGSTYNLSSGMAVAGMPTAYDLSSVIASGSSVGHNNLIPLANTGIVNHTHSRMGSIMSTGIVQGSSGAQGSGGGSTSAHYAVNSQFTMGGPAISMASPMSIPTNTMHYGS
Briefly: Inhibition of CARM1 (unknown origin).

For assay [3], the target named is Protein arginine N-methyltransferase 5 (Homo sapiens, UniProt O14744). Briefly: Inhibition of PRMT5 (unknown origin).
Protein arginine N-methyltransferase 5, sequence (O14744 whole entry): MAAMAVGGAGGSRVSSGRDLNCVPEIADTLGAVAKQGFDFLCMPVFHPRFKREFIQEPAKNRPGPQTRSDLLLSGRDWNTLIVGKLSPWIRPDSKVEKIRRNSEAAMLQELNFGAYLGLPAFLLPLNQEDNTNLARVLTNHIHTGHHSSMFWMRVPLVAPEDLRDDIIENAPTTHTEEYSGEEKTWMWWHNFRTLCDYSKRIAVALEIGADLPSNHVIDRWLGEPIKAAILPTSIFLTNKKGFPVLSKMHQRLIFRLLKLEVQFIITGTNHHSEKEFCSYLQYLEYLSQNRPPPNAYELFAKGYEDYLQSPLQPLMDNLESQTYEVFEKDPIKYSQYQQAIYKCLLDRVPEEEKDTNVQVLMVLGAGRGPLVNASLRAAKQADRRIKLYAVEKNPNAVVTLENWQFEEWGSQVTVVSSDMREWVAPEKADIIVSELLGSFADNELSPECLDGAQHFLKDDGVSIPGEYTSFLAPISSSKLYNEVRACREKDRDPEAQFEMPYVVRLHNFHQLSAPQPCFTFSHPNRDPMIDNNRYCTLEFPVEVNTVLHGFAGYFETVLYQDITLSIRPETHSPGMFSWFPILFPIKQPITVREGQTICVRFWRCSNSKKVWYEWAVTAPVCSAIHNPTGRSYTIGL
The target in assay [4] is T2, Histone-lysine N-methyltransferase EHMT2 (Homo sapiens, UniProt Q96KQ7).
T2 sequence (Q96KQ7 whole entry): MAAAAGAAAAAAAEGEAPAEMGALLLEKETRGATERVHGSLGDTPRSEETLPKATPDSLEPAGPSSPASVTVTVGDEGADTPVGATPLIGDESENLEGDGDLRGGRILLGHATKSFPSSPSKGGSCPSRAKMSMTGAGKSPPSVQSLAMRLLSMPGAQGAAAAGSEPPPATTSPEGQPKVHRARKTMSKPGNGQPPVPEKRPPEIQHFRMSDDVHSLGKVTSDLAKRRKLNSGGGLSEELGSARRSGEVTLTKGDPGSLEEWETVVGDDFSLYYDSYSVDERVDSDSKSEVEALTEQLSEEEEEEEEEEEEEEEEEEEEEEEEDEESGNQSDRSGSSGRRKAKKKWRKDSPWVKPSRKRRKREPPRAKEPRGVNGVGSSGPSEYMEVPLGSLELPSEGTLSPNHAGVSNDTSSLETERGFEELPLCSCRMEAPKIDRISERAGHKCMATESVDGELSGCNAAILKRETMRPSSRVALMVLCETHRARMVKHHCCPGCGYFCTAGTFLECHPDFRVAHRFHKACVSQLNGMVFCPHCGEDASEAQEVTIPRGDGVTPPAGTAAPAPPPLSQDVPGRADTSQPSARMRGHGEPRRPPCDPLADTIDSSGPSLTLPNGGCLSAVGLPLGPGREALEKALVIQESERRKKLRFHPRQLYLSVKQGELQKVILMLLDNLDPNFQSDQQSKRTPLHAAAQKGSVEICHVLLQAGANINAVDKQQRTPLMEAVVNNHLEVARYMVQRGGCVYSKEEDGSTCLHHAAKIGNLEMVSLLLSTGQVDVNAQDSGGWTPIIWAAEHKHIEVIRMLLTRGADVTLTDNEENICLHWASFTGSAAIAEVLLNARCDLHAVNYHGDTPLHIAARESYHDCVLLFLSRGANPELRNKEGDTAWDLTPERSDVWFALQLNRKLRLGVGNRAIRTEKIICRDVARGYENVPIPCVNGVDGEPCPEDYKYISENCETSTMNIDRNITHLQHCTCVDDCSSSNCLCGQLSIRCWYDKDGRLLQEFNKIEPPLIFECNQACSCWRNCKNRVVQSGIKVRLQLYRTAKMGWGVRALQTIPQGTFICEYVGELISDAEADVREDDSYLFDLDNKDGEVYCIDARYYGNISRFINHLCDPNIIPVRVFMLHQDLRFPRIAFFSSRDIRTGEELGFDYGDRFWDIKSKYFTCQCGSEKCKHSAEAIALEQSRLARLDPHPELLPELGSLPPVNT
Briefly: Inhibition of EHMT2 (unknown origin).

Assay [5] has as its target Histone-lysine N-methyltransferase, H3 lysine-79 specific (Homo sapiens, UniProt Q8TEK3). Briefly: Inhibition of DOT1L in human THP1 cells assessed as reduction in H3K79 methylation measured after 7 days. It counts as cell-based.

Histone-lysine N-methyltransferase, H3 lysine-79 specific, sequence (Q8TEK3 whole entry): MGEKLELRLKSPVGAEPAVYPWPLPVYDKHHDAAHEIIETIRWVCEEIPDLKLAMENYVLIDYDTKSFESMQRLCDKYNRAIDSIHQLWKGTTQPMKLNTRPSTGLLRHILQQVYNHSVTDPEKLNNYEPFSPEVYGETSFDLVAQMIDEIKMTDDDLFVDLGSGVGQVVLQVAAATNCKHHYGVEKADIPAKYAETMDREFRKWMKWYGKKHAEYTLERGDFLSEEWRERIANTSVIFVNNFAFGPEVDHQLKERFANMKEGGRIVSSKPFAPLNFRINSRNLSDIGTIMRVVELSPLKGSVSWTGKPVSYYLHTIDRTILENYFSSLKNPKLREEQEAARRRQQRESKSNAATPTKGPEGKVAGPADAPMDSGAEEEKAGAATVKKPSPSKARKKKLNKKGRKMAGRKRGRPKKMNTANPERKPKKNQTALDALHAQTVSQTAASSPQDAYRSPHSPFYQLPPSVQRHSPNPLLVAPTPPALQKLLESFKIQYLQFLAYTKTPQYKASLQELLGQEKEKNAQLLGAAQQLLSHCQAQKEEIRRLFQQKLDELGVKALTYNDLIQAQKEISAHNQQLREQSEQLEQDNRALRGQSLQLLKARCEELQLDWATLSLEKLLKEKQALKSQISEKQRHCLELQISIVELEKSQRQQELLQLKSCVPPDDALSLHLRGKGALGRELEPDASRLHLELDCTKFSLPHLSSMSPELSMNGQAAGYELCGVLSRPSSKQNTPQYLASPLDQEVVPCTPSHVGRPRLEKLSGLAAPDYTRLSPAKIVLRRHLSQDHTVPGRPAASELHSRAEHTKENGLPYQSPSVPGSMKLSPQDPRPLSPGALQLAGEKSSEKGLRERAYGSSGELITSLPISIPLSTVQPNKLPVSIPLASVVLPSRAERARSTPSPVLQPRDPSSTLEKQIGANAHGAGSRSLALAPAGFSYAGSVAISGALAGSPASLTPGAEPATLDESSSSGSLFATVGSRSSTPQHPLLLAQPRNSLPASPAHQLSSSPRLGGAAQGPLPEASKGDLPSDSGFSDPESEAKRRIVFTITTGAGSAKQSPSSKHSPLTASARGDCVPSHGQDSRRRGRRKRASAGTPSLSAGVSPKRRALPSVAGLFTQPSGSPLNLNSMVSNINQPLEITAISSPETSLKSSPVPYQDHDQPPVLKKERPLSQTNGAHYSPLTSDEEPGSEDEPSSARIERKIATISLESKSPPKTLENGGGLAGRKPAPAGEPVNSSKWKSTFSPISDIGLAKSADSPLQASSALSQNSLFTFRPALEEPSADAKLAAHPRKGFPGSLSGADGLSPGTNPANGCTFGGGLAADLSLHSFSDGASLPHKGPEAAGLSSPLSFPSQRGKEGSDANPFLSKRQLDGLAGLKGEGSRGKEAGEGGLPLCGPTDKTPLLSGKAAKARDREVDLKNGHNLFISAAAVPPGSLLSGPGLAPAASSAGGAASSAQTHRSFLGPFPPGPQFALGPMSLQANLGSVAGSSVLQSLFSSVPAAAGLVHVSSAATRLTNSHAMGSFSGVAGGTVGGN

Turning to `COc1cc(OC)c(-c2cn3cc(NCCN)c(OC)cc3n2)cc1Cl`, the IC50 in the assay with HCT-116, with A549, in the assay with HFL1, in the assay with CCD-18Co and in the assay with PC-14 was below 10 µM in each case.

As to `CC(CNC(=O)Nc1ccc(C(C)(C)C)cc1)CN(C)C[C@H]1O[C@@H](n2cnc3c(N)ncnc32)[C@H](O)[C@@H]1O` (stereo not given in full), the IC50 in assay [1] is above 50 µM; in assay [2], above 50 µM; in [3], above 50 µM; in assay [4] it was above 50 µM; in assay [5], below 0.1 µM.
